Source: patent US8609695B2, “Methods of treating and/or suppressing insulin resistance” (Endorecherche, Inc., priority 1999, dated 2013)
Marks after values point to notes of the source that are not given here.

Assays:
ovariectomized rats = test: 20-day treatment with EM-652.HCl, body fat, body weight and energy balance (Example 3); assay type: in vivo, rat; conditions: 20 days
Procedure: Eight to ten week-old female Sprague-Dawley rats (Crl:CD(SD)Br) (Charles River Laboratory, St-Constant, Canada) weighing approximately 200-225 g at the start of treatment were used. The animals were acclimatized to the environmental conditions (temperature: 22±3° C.; 10-h light-14-h dark cycles, lights on at 06:00 h) for 1 week before starting the experiment. The animals were housed individually in stainless steel cages of conventional design and were allowed free access to tap water and a high carbohydrate mixed diet composed of (g/100 g): Corn starch, 31.2; Dextrose, 31.2; Casein, 20.0; corn oil, 6.4; dl-Methionine, 0.3; Vitamine mix, 1.0; AIN-76 mineral mix, 4.9 and fiber, 5.0. The experiment was conducted in a Canadian Council on Animal Care approved facility in accordance with the CCAC Guide for Care and Use of Experimental Animals.
On day 1 of the study, the animals of the appropriate groups were bilaterally ovariectomized (OVX) under isoflurane anesthesia. […] The treatment with EM-652.HCl or vehicle alone (0.4% methylcellulose in water) was initiated on day 2 of the study. The compound or vehicle was given once daily by oral gavage in 0.5 ml/rat for 20 days. Body weights and food consumption were recorded every 2 days.
Approximately 24 hours after the last dosing, overnight fasted animals were anesthesized with ketamine-xylazine and blood drawn by cardiac puncture. The blood was collected as well as white and brown adipose tissues.
Body weight, food intake, and body gains in energy, fat, and protein were determined according to Deshaies et al, Am. J. Physiol., 1997; 273, E355-E362 (1997).
Lipoprotein lipase activities were determined according to Deshaies et al, Am. J. Physiol., 1997; 273, E355-E362 (1997).

[1] = system: human endometrial adenocarcinoma Ishikawa cells; test: Alkaline phosphatase activity in Ishikawa cells (Example 11); assay type: cell-based; conditions: for Stimulation of alkaline phosphatase by tested compounds % of 1 nM E2 stimulation: Ishikawa cells, five days incubation, intrinsic estrogenic activity, hydrochloride
Procedure: The human Ishikawa cell line derived from a well differentiated endometrial adenocarcinoma was kindly provided by Dr. Erlio Gurpide, The Mount Sinai Medical Center, New York, N.Y. The Ishikawa cells were routinely maintained in Eagle's Minimum Essential Medium (MEM) containing 5% (vol/vol) FBS and supplemented with 100 U/ml penicillin, 100 μg/ml streptomycin, 0.1 mM Non-essential Amino Acids solution. Cells were plated in Falcon T75 flasks at a density of 1.5×10^6 cells at 37 C.
Twenty four hours before the start of an experiment, the medium of near confluent Ishikawa cells was replaced by fresh estrogen-free basal medium (EFBM) consisting of a 1:1 (v:v) mixture of phenol red-free Ham's F-12 and Dulbecco's Modified Eagle's Medium (DMEM) supplemented with 100 U/mL penicillin, 100 μg/mL Streptomycin, 2 mM glutamine, and 5% FBS treated twice with dextran-coated charcoal to remove endogenous steroids. Cells were then harvested by 0.1% pancreatin (Sigma) and 0.25 mM HEPES, resuspended in EFBM and plated in Falcon 96 well flat-bottomed microtiter plates at a density of 2.2×10^4 cells/well in a volume of 100 μl and allowed to adhere to the surface of the plates for 24 h. Thereafter, medium was replaced with fresh EFBM containing the indicated concentrations of compounds in a final volume of 200 μl. Cells were incubated for five days, with a medium change after 48 h.
At the end of the incubation period, microtiter plates were inverted and growth medium was decanted. The plates were rinsed with 200 μL by well of PBS (0.15M NaCl, 10 mM sodium phosphate, pH 7.4). PBS was then removed from the plates while carefully leaving some residual PBS, and the wash procedure was repeated once. The buffered saline was then decanted, and the inverted plates were blotted gently on a paper towel. Following replacement of the covers, the plates were placed at −80 C for 15 min followed by thawing at room temperature for 10 min. The plates were then placed on ice, and 50 μl of an ice-cold solution containing 5 mM p-nitrophenyl phosphate, 0.24 mM MgCl2, and 1 M diethanolamine (pH 9.8) was added. Plates were then warmed to room temperature, and the yellow color from the production of p-nitrophenyl was allowed to develop (8 min). Plates were monitored at 405 nm in an enzyme-linked immunosorbent assay plate reader (BIO-RAD, model 2550 EIA Reader).
Dose-response curves as well as IC50 values were calculated using a weighted iterative nonlinear squares regression.

[2] = OVX rats, EM-652.HCl 0.5 mg/rat oral once daily, E2 implant

IC50 ([1]; Homo sapiens, Ishikawa, 120 h, read-out: Inhibition of 1 nM E2 stimulation of alkaline phosphatase by tested compounds IC50): 1.52 ± 0.22 nM
SMILES: CC1=C(c2ccc(O)cc2)[C@H](c2ccc(OCCN3CCCCC3)cc2)Oc2cc(O)ccc21.Cl [EM-652.HCl, (S)-(+)-7-hydroxy-3-(4′-hydroxyphenyl)-4-methyl-2-(4″-(2′″-piperidino-ethoxy)phenyl)-2H-1-benxopyran hydrochloride]
Ovx-induced increase in energy intake (ovariectomized rats): completely prevented | Ovx-induced insulin resistance (fasting hyperinsulinemia and hyperglycemia) (ovariectomized rats; FIG. 5): prevented | decrease in soleus muscle lipoprotein lipase by Ovx (ovariectomized rats; FIG. 8): prevented | soleus weight increase by Ovx (ovariectomized rats; FIG. 8): prevented | OVX increase in mass of inguinal and retroperitoneal adipose tissues (ovariectomized rats; FIGS. 6A and 6C): completely abolished | body weight gain after ovariectomy (ovariectomized rats; OVX rats, FIG. 2A): completely reversed | protein gain (ovariectomized rats; OVX rats, FIG. 2B): less accentuated | fat gain after ovariectomy (ovariectomized rats; OVX rats, FIG. 2C): completely reversed | Cumulative food intake (ovariectomized rats; OVX rats, FIG. 3): lower than that of intact animals | increase in body energy from proteins following ovariectomy (ovariectomized rats; OVX rats, FIG. 4A): completely reversed | increase in body energy from fat following ovariectomy (ovariectomized rats; OVX rats, FIG. 4B): completely reversed | interscapular brown adipose tissue weight, protein content and lipoprotein lipase activity (ovariectomized rats; OVX rats, FIG. 7): completely reversed | Digestible energy intake (ovariectomized rats; [2]): 4479^b kJ | Enegery gain (ovariectomized rats; [2]): 278^b kJ | Apparent energy (expenditure) (ovariectomized rats; OVX rats, calculated from energy intake and energy gain): 4201^b kJ | Food efficiency (ovariectomized rats; OVX rats, kJ deposited per 100 kJ ingested): 5.9b % | Stimulation of alkaline phosphatase by tested compounds % of 1 nM E2 stimulation [1]: do not show significant estrogenic activity | Stimulation of alkaline phosphatase by tested compounds % of 1 nM E2 stimulation ([1]; listed as EM-652•HCl): 1.88 ± 0.26 (22) % of 1 nM E2 stimulation
